Six compounds from patent publication US20050256174A1, “Raf kinase inhibitors” (priority 1998, published 2005) can be followed below.

The structures appear in SMILES notation.

The compound `COC(=O)c1sc(C(C)C)cc1NC(=O)Nc1ccc(C)cc1` [Example 1, 5-Isopropyl-3-(3-p-tolyl-ureido)-thiophene-2-carboxylic acid methyl ester] returned a melting point of 93 to 95 °C.

As for `COC(=O)c1cc(C(C)(C)C)sc1NC(=O)Nc1ccc(C)cc1` [Example 26, 5-tert-Butyl-2-(3-p-tolyl-ureido)-thiophene-3-carboxylic acid methyl ester], the melting point is 109 to 111 °C.

`COC(=O)c1cc(C(C)(C)C)sc1NC(=O)Nc1ccccc1` [Example 27, 5-tert-Butyl-2-(3-phenyl-ureido)-thiophene-3-carboxylic acid methyl ester]: the melting point lay in the range of 80 to 82 °C.

`CCc1nnc(NC(=O)Nc2sc(C(C)(C)C)cc2C(=O)OC)s1` [Example 28, 5-tert-Butyl-2-(3-(5-ethyl-[1,3,4]thiadiazol-2-yl)-ureido)-thiophene-3-carboxylic acid methyl ester]: the melting point fell in the range of 206 to 208 °C.

`COC(=O)c1cc(C(C)C)sc1NC(=O)Nc1ccc(C)cc1` [Example 29, 5-Isopropyl-2-(3-p-tolyl-ureido)-thiophene-3-carboxylic acid methyl ester] displayed a melting point of 49 to 51 °C.

`COC(=O)c1cc(C(C)C)sc1NC(=O)Nc1ccc(C)s1` [Example 30, 5-Isopropyl-2-[3-(5-methyl-thiophen-2-yl)-ureido]-thiophene-3-carboxylic acid methyl ester] registered a melting point of 70 to 73 °C.

Broadly, the melting point is the temperature of the solid-liquid transition.
